# Reference: patent publication US8173131B2, “Compositions and methods for modulating RSV infection and immunity” (PerkinElmer Health Sciences, Inc., priority 2000, dated 2012)
# Columns and labels:
# [1] = test system: cell trafficking to the lung (BAL cells); assay: In vivo cell trafficking to the lung of naïve mice after intranasal treatment; design: species or system BALB/c mice; settings: for Percentage of cells from BAL determined by flow cytometry: B220 / Percentage of cells from BAL determined by flow cytometry: CD4 / Percentage of cells from BAL determined by flow cytometry: CD8 / Percentage of cells from BAL determined by flow cytometry: CD11b / Percentage of cells from BAL determined by flow cytometry: DX5 / Percentage of cells from BAL determined by flow cytometry: RB6-8C5 / Percentage of cells from BAL determined by H&E stain: Eosinophil / Percentage of cells from BAL determined by H&E stain: Lymphocyte / Percentage of cells from BAL determined by H&E stain: Macrophage / Percentage of cells from BAL determined by H&E stain: PMN: day 2 post-treatment; for Percentage of cells from BAL determined by flow cytometry: B220 / Percentage of cells from BAL determined by flow cytometry: CD4 / Percentage of cells from BAL determined by flow cytometry: CD8: lymphocyte gate; for Percentage of cells from BAL determined by flow cytometry: CD11b / Percentage of cells from BAL determined by flow cytometry: DX5 / Percentage of cells from BAL determined by flow cytometry: RB6-8C5: ungated events; for Percentage of cells from BAL determined by H&E stain: Eosinophil / Percentage of cells from BAL determined by H&E stain: Lymphocyte / Percentage of cells from BAL determined by H&E stain: Macrophage / Percentage of cells from BAL determined by H&E stain: PMN / mean BAL cell numbers (±SEM) recovered: naïve BALB/c mice; for Percentage of cells from BAL determined by H&E stain: Eosinophil / Percentage of cells from BAL determined by H&E stain: Lymphocyte / Percentage of cells from BAL determined by H&E stain: Macrophage / Percentage of cells from BAL determined by H&E stain: PMN: i.n. 1 μM, median ± SE; for mean BAL cell numbers (±SEM) recovered: intranasal 1 μM, 48 hours post-treatment
# Description: FIG. 5A is a bar graph showing leukocyte chemotaxis toward G glycoprotein or fractalkine (Fkn) in the presence or absence of anti-CX3CR1 antibody or normal rabbit sera. The chemotactic index determined from the fold increase of murine leukocyte migration toward the chemoattractant (e.g., Fkn or G glycoprotein) over the leukocyte migration toward the media alone control using modified Boyden chambers. Fkn, G glycoprotein, […] (10 μg) or normal rabbit sera (10 μg) was added to the upper chamber to examine antagonism of cell migration toward the chemoattractant in the lower chamber. FIG. 5B is a bar graph showing cell trafficking to the lung of naïve BALB/c mice intranasally treated with G glycoprotein, fractalkine or G glycoprotein peptides RT32, RT33 or RT34. BAL cells were fixed and stained with H&E. Cell subsets were determined as a percentage of the total BAL cells counted from >200 cells/slide counting two slides for each experiment. The percent cell type represents the median±SE from three separate experiments. * indicates significant difference compared to tissue culture media alone (p<0.05). Naïve BALB/c mice were i.n. treated with 1 μM G glycoprotein or fractalkine or with 1 μM G glycoprotein peptides. The BAL was collected 2 days post-treatment for analysis.
# Cell trafficking to the lung in naïve and FI-RSV-immune BALB/c mice was examined following intranasal treatment with either 1 μM fractalkine, RSV G glycoprotein or RSV G peptides. All mice were females purchased from Harlan Sprague Dawley (Indianapolis, Ind.) and maintained at the Centers for Disease Control and Prevention in Atlanta, Ga. FI-RSV-immune mice were immunized in the superficial gluteal muscle using 10^6 pfu equivalents of FI-RSV in accordance with methods known to those skilled in the art. Mice were anesthetized with 2,2,2,-tribromoethanol and intranasally treated with 0.05 ml of either fractalkine, RSV G glycoprotein or peptide diluted in PBS (GIBCO). At day two post-treatment, the mice were anesthetized, exsanguinated by severing the right caudal artery, and the bronchoalveolar (BAL) cells collected in PBS containing 1% BSA (Sigma). BAL cells were blocked with 10% normal mouse sera (Jackson Laboratories, Bar Harbor, Me.) in PBS, and then stained with the appropriate combinations of FITC- or PE-labeled anti-CD3 (145-2C11), anti-CD4 (GK1.5), anti-CD8 (53-6.7), anti-CD11b (M1/70), anti-CD45R/B220 (RA3-6B2), anti-pan NK cell (DX5), anti-neutrophil (RB6-8C5), and mouse isotype Ab controls (all from PharMingen, San Diego, Calif.). The distribution of cell surface markers was determined in two-color mode on a FACScan with CellQUEST software (Becton-Dickinson, Mountain View, Calif.).
# [2] = test system: human peripheral blood mononuclear cells; assay: Human PBMC chemotaxis and CX3CR1 expression in modified Boyden chamber; format: cell-based; settings: for Chemotactic Indices / CX3CR1 Expression (%) Lower / CX3CR1 Expression (%) Upper: 6 h
# Description: Leukocyte chemotaxis toward Fkn, G glycoprotein or media was measured according to Boyden^46 using 24 well plates (Costar, Cambridge, Mass.) with 3 μm filter inserts (Nalge Nunc, Rochester, N.Y.) coated with an extracellular matrix consisting primarily of laminin, collagen IV and proteoglycan (ECM, Sigma, St. Louis, Mo.). For murine studies, 5×10^5 naïve spleen cells was placed in the upper chamber and 10 nM mouse Fkn or 10 nM G glycoprotein, anti-CX3CR1 antibody, anti-G or anti-F glycoprotein monoclonal antibody, normal rabbit sera, rabbit anti-CCR5 sera or media was placed in the upper or lower chamber as appropriate. For human studies, 10^6 density gradient purified (Lymphocyte Separation Media, ICN Biomedicals, Aurora, Ohio, per manufacture instructions) peripheral blood mononuclear cells (PBMC) from normal human adult donors was placed in the upper chamber in the presence or absence of 1 μM peptide RT33, and 10 nM human Fkn, 10 nM G glycoprotein or 1 μM peptide RT33 placed in the lower chambers. The modified Boyden chamber was incubated at 37° C. for 4-6 h, the inserts removed, washed in PBS (GIBCO BRL), fixed in 3% gluteraldehyde and stained in formalin-buffered 0.01% crystal violet. Chemotactic cells were visualized with a microscope. Chemotactic cells were analyzed for CX3CR1 expression by collecting cells from the upper or lower modified Boyden chambers, antibody staining (2A9-1) and flow cytometry as described. Leucocytes chemotactic toward G or Fkn expressed a higher percent of CX3CR1 in the lower (25-30%) versus upper chamber (7-11%).
# Leukocyte chemotaxis and percent positive CX3CR1 expression on human PBMC after a 6 h chemotaxis assay were determined. The percentage of cells positive for CX3CR1 in both upper and lower modified Boyden chambers are shown. Chemotactic indices were determined from the fold increase of leukocyte migration toward the chemoattractant, i.e. Fkn, G glycoprotein or peptide RT33, over the leukocyte migration toward media alone. TCM=tissue culture media.
# [3] = test system: RSV; assay: RSV plaque reduction by small molecule peptide inhibitors on Vero cells (Example II); format: cell-based, RSV/A2; settings: peptide added to heparin 5 μg/ml; in words
# Description: Vero cells were treated with PBS, RT33, RT34, Δ+1, Δ−1 and EYp1 peptides (100 μm) in the presence (B) or absence of heparin (A) (5 μg/ml). Percentage inhibition was determined by dividing the mean plaque forming units (PFU) of treated Vero cells by the mean PFU of PBS-treated Vero cells.
# Different concentrations of the G glycoprotein peptides and/or 5 μg/ml heparin (Sigma) were diluted in Dulbecco's phosphate buffered saline (D-PBS; GIBCO) and added to Vero cell monolayers for 1 h at 37° C. Pre-treated Vero cells were infected with 10^6 PFU of RSV/A2 diluted in serum-free DMEM (GIBCO) for 2 h at 37° C., after which DMEM (GIBCO) containing 10% FBS (Hyclone, Logan, Utah) was added, and the infected cells incubated at 37° C. for 3-4 days. Plaques were enumerated by immunostaining with monoclonal antibodies against the G and F glycoproteins (130-2G and 131-2A, respectively), as described (54,55).
# [4] = TCM in upper chamber, substance in lower chamber (10 nM G or Fkn, 1 μM RT33)
# [5] = TCM in upper chamber, substance in lower chamber
# [6] = 1 μM RT33 in upper chamber, Fkn in lower chamber
# [7] = 1 μM RT33 in upper chamber, G glycoprotein in lower chamber
Molecule,Percentage of cells from BAL determined by flow cytometry: B220 [1] [%],Percentage of cells from BAL determined by flow cytometry: CD4 [1] [%],Percentage of cells from BAL determined by flow cytometry: CD8 [1] [%],Percentage of cells from BAL determined by flow cytometry: CD11b [1] [%],Percentage of cells from BAL determined by flow cytometry: DX5 [1] [%],Percentage of cells from BAL determined by flow cytometry: RB6-8C5 [1] [%],Percentage of cells from BAL determined by H&E stain: Eosinophil [1] [%],Percentage of cells from BAL determined by H&E stain: Lymphocyte [1] [%],Percentage of cells from BAL determined by H&E stain: Macrophage [1] [%],Percentage of cells from BAL determined by H&E stain: PMN [1] [%],mean BAL cell numbers (±SEM) recovered [1],"Chemotactic Indices [2, 4]","CX3CR1 Expression (%) Lower [2, 5]","CX3CR1 Expression (%) Upper [2, 5]",effect of adding peptide to heparin on plaque reduction [3],also measured
"Fkn: CX3C chemokine fractalkine (R&D), ligand of CX3CR1 [reference compound]",6 ± 2,16 ± 4,6 ± 2,12 ± 4,17 ± 8,10 ± 6,0 ± 0,10 ± 3,71 ± 10,16 ± 5,3.8 (±0.6) ×10^5 cells/ml,3.2-3.7,26-30%,7-8%,–,–
NKKPGKKTTTKP [RT34],4 ± 2,6 ± 2,3 ± 3,3 ± 1,6 ± 2,6 ± 4,0 ± 0,8 ± 2,86 ± 8,8 ± 3,2.8 (±0.2) ×10^5 cells/ml,–,–,–,no effect above heparin treatment alone,–
TCWACKRIPNK (TCWAIACKRIPNK) [Δ − 1],–,–,–,–,–,–,–,–,–,–,–,–,–,–,no effect above heparin treatment alone,–
TCWAIACKRIPNK [Δ + 1],–,–,–,–,–,–,–,–,–,–,–,–,–,–,no effect above heparin treatment alone,–
TCWAICKRIPNK [RT33],4 ± 2,10 ± 2,4 ± 2,10 ± 4,10 ± 2,12 ± 2,0 ± 0,4 ± 2,76 ± 8,16 ± 6,3.5 (±0.3) ×10^5 cells/ml,1.6-2.2,16-18%,11-16%,–,"CX3CR1 Expression (%) Lower [2, 6]: 6-14%; CX3CR1 Expression (%) Upper [2, 6]: 16-21%; Chemotactic Indices [2, 6]: 1.8-2.2; CX3CR1 Expression (%) Lower [2, 7]: 9-14%; CX3CR1 Expression (%) Upper [2, 7]: 16-18%; Chemotactic Indices [2, 7]: 1.5-2.0; effect on chemotaxis toward G glycoprotein and Fkn ([2]; peptide added to upper Boyden chamber, in words): reduced chemotaxis toward both G glycoprotein and Fkn"
VPCSICSNNPTC [RT32],3 ± 2,2 ± 2,2 ± 2,3 ± 2,2 ± 1,2 ± 2,0 ± 0,12 ± 4,94 ± 5,2 ± 2,2.2 (±0.5) ×10^5 cells/ml,–,–,–,–,–
G glycoprotein: purified G glycoprotein isolated from RSV/A2-infected Vero cells (protein) MSKNKDQRTAKTLERTWDTLNHLLFISSCLYKLNLKSVAQITLSILAMIISTSLIIAAIIFIASANHKVTPTTAIIQDATSQIKNTTPTYLTQNPQLGISPSNPSEITSQITTILASTTPGVKSTLQSTTVKTKNTTTTQTQPSKPTTKQRQNKPPSKPNNDFHFEVFNFVPCSICSNNPTCWAICKRIPNKKPGKKTTTKPTKKPTLKTTKKDPKPQTTKSKEVPTTKPTEEPTINTTKTNIITTLLTSNTTGNPELTSQMETFHSTSSEGNPSPSQVSTTSEYPSQPSSPPNTPRQ,5 ± 4,8 ± 2,4 ± 3,12 ± 5,9 ± 6,10 ± 4,0 ± 0,10 ± 3,68 ± 10,22 ± 4,4.6 (±1.1) ×10^5 cells/ml,3.0-3.6,25-30%,8-11%,–,–
